Test results: patent US9629830B2, “EphA4 inhibitors as neuroprotective agents” (The Hong Kong University of Science and Technology, priority 2013, dated 2017)

Experiments:
[1] = system: NMDA receptors; assay: NMDA current in hippocampal neurons; assay type: cell-based; conditions: data not shown
[2] = system: Tg2576 mutant mice; assay: HFS-induced hippocampal LTP in WT and Tg2576 mice after oral treatment; assay type: in vivo, mouse
Text: APP/PS1 double-transgenic mice were obtained from Jackson Laboratory (B6C3-Tg[APPswe, PSEN1dE9]85Dbo/J)^66. These mice were generated by incorporating a human/murine APP construct bearing the Swedish double mutation and the exon-9-deleted PSEN1 mutation (APPswe+PSEN1/dE9). APP transgenic mice (Tg2576) expressing a double mutant of human AβPP (Lys^670→Asn^670, Met^671→Leu^671) were also used^31. Both sexes were used for experiments, and all mice used in this study were produced by the Animal Care Facility of The Hong Kong University of Science and Technology. The genotype was confirmed by polymerase chain reaction analysis of tail biopsies. Four to five mice of the same sex were housed in a cage with food and water ad libitum with a 12-hour light/dark cycle.
To investigate the effect of blocking EphA4 signaling by KYL peptide in AD mice, 4-5-month-old AD transgenic mice were implanted with Alzet mini-osmotic pumps, model 1004, pumping its contents at 0.11 μL/h for 28 days. Pumps were loaded with either 0.23 μg/μL KYL peptide (17 μg) or vehicle solvent in artificial cerebrospinal fluid (CSF). The mini-osmotic pumps were adjusted intracerebroventricularly in the right hemisphere. […]
For LTP recordings, mouse brains were immediately dissected after sacrifice and soaked in ice-cold 95% O2/5% CO2 (aCSF)^58. […] For treatment with EphA4 inhibitors, the slices were pretreated with peptides or chemicals for 1 h before application of Aβ. fEPSPs were recorded using a MED64 multichannel recording system, and the data were collected from the dendritic layer of area CA1 at a sampling rate of 10 kHz. For each slice, the baseline stimulus intensity was set at the level that elicited ˜50% of the maximum fEPSP response determined according to the input-output curve. […] The magnitude of LTP was quantified as a percentage change in the fEPSP slope (10%-90%) taken during the 60-min interval after LTP induction.

CC[C@H]1CN2CC[C@]3(C(=O)Nc4ccccc43)[C@@H]2C[C@@H]1/C(=C\OC)C(=O)OC [Rhy, methyl (7β,16E,20α)-16-(methoxymethylene)-2-oxocorynoxan-17-oate]
inhibition of NMDA current in hippocampal neurons [1]: unable to inhibit NMDA current | mean fEPSP slope, last 10 min after LTP induction ([2]; Tg2576 mice, Rhy oral 20 mg·kg−1·day−1 for 3 weeks, Tg Con 119.0±3.7%): 161.9±2.9% | mean fEPSP slope, last 10 min after LTP induction ([2]; Tg2576 mice, Rhy oral 50 mg·kg−1·day−1 for 3 weeks, Tg Con 119.0±3.7%): 159.7±17.9% | mean fEPSP slope, last 10 min after LTP induction ([2]; WT mice, Rhy oral 20 mg·kg−1·day−1 for 3 weeks, WT Con 170.1±9.7%): 167.3±5.2%
